# Test results reported in patent US5565469A, “Benzimidazoles and pharmaceutical compositions containing them” (Dr. Karl Thomae GmbH, priority 1994, dated 1996).
# Molecular target: T1, Angiotensin-II-receptor (Rattus norvegicus, UniProt P25095)
# T1 construct: The tissue (rat's lung) is homogenised in tris buffer; from tissue; host or cells: rat lung homogenate
# T1 sequence (P25095 1-359): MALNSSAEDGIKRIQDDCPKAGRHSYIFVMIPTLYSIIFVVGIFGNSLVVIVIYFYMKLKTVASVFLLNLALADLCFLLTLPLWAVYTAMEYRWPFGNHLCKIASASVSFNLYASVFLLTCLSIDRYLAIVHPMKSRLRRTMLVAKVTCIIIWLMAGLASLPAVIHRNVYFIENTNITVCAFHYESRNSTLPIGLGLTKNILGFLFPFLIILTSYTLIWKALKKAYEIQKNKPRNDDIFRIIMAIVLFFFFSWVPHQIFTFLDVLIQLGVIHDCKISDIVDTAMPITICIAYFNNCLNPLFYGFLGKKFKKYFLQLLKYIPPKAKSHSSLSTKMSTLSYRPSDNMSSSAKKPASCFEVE
# Assay: Angiotensin-II-receptor binding (rat lung homogenate, [^125 I]-angiotensin-II displacement)
# Settings: rat's lung homogenate; 50 pM [^125 I]-angiotensin-II; 60 minutes at 37° C.; pH 7.40
# Experimental: The tissue (rat's lung) is homogenised in tris buffer (50 mMol Tris, 150 mMol NaCl, 5 mMol EDTA, pH 7.40) and centrifuged twice for 20 minutes each time at 20,000×g. The resulting pellet is resuspended in incubation buffer (50 mMol Tris, 5 mMol MgCl2, 0.2% BSA, pH 7.40) 1:75, based on the moist weight of the tissue. Each 0.1 ml of homogenate is incubated for 60 minutes at 37° C. with 50 pM [^125 I]-angiotensin-II (NEN, Dreieich, FRG) and increasing concentrations of the test substance in a total volume of 0.25 ml. The incubation is terminated by rapid filtration through glass fibre filter mats. The filters are each washed with 4 ml of ice cold buffer (25 mMol Tris, 2.5 mMol MgCl2, 0.1% BSA, pH 7.40). The bound radioactivity is measured in a gamma-counter. The corresponding IC50 value is determined from the dosage-activity curve.
row,IC50,Structure (SMILES)
1,0.078 µM,CCCc1nc2c(C)cc(-c3nc4ccccc4n3C)cc2n1Cc1ccc(-c2ccccc2S(=O)(=O)NC(=O)c2ccccc2)cc1 [H]
2,0.028 µM,CCc1nc2c(C)cc(-c3cn4c(n3)CCCC4)cc2n1Cc1ccc(-c2ccccc2NC(=O)C(F)(F)F)cc1 [E]
3,0.008 µM,CCCc1nc2c(C)cc(-c3nc4ccccc4n3C)cc2n1Cc1ccc(-c2ccccc2S(=O)(=O)O)cc1 [B]
4,0.094 µM,CCCc1nc2c(C)cc(-c3nc4ccccc4n3C)cc2n1Cc1ccc(-c2ccccc2C=C2SC(=O)NC2=O)cc1 [A]
5,0.11 µM,CCCc1nc2c(C)cc(-c3nc4ccccc4n3C)cc2n1Cc1ccc(-c2ccccc2S(=O)(=O)NC(=O)NCc2ccc(OC)cc2)cc1 [F]

# Continued, compound first:
row,Structure (SMILES),IC50
1,CCc1nc2c(C)cc(-c3cn4c(n3)CCCC4)cc2n1Cc1ccc(-c2ccccc2S(=O)(=O)O)cc1 [C],0.0034 µM
2,CCCCc1nc2c(C)cc(N3CCCS3(=O)=O)cc2n1Cc1ccc(-c2ccccc2S(=O)(=O)NC(=O)c2ccccc2)cc1 [J],0.0139 µM
3,CCCc1nc2c(C)cc(-c3nc4ccccc4n3C)cc2n1Cc1ccc(-c2ccccc2NC(=O)C(F)(F)F)cc1 [D],0.04 µM
4,CCc1nc2c(C)cc(-c3cn4c(n3)CCCC4)cc2n1Cc1ccc(-c2ccccc2S(=O)(=O)NC(=O)c2ccccc2)cc1 [I],0.036 µM
5,CCCc1nc2c(C)cc(-c3nc4ccccc4n3C)cc2n1Cc1ccc(-c2ccccc2S(=O)(=O)NC(=O)NC2CCCCC2)cc1 [G],0.31 µM
6,CCc1nc2c(C)cc(-c3cn4c(n3)CCCC4)cc2n1Cc1ccc(-c2ccccc2S(=O)(=O)NC(=O)NC2CCCCC2)cc1 [K],0.073 µM
